Measured values published in patent US20250235455A1, “AQUEOUS TICAGRELOR SOLUTIONS, METHOD OF MANUFACTURING AND USES” (HYLORIS DEVELOPMENTS SA, priority 2022, published 2025).
In brackets after ≈: the same amount, converted by molar mass. Read-outs that look alike come from different tables or passages of the source.

What was measured:
Format in all cases: physicochemical
[1] = Solubility of ticagrelor in SBECD (appearance on shaking platform)
Method: In a first example two different types of cyclodextrin were used and compared for the solubilization of ticagrelor. An unbuffered stock solution of HPβCD or SBECD was made in water at the target concentrations of 20 w/w %, 25 w/w %, 30 w/w %, 35 w/w % and 40 w/w %. Ticagrelor was added slowly under vortex. Ticagrelor was used at concentrations of 5, 10 or 14 mg/ml in milli Q water. The ticagrelor-cyclodextrin solutions were left on a shaking platform. No sonification or heat was applied.

[2] = Impact of packaging on stability, HPβCD 32.5% w/w, 5 mM pH 7.5 phosphate buffer, 40° C./75% RH; settings: for Assay: in %
Method: To study the potential impact of the packaging material on the stability of the ticagrelor-cyclodextrin inclusion complex a composition with 32.5% w/w HPβCD was prepared with procedures and precaution's similar to previous trials, samples were stored in transparent clear glass vials and amber colored glass vials at a temperature of 40° C./75% RH.

[3] = Maximum solubility of ticagrelor in HPβCD solution without heat; settings: aqueous with cosolvent or surfactant or cyclodextrin, read-out: Ticagrelor mg/ml (maximum solubility)
Text: In a further example, the maximum solubility of ticagrelor in an HPβCD solution, without the use of heat, was investigated.

[4] = SBECD 20% w/w, ticagrelor 5 mg/ml
[5] = SBECD 20% w/w, ticagrelor 10 mg/ml
[6] = SBECD 20% w/w, ticagrelor 14 mg/ml
[7] = SBECD 25% w/w, ticagrelor 5 mg/ml
[8] = SBECD 25% w/w, ticagrelor 10 mg/ml
[9] = SBECD 25% w/w, ticagrelor 14 mg/ml
[10] = SBECD 30% w/w, ticagrelor 5 mg/ml
[11] = SBECD 30% w/w, ticagrelor 10 mg/ml
[12] = SBECD 30% w/w, ticagrelor 14 mg/ml
[13] = SBECD 35% w/w, ticagrelor 5 mg/ml
[14] = SBECD 35% w/w, ticagrelor 10 mg/ml
[15] = SBECD 35% w/w, ticagrelor 14 mg/ml
[16] = SBECD 40% w/w, ticagrelor 5 mg/ml
[17] = SBECD 40% w/w, ticagrelor 10 mg/ml
[18] = SBECD 40% w/w, ticagrelor 14 mg/ml
[19] = Amber colour USP Type I Glass vials, 1 M
[20] = Amber colour USP Type I Glass vials, 2 M
[21] = Amber colour USP Type I Glass vials, 3 M
[22] = Amber colour USP Type I Glass vials, T0
[23] = Clear USP Type I Glass vials, 1 M
[24] = Clear USP Type I Glass vials, 2 M
[25] = Clear USP Type I Glass vials, 3 M
[26] = Clear USP Type I Glass vials, T0

Compound: CCCSc1nc(N[C@@H]2C[C@H]2c2ccc(F)c(F)c2)c2nnn([C@@H]3C[C@H](OCCO)[C@@H](O)[C@H]3O)c2n1 [Ticagrelor, (1S,2S,3R,5S)-3-{7-[(1R,2S)-2-(3,4-difluorophenyl)cyclopropylamino]5-(propylthio)-3H-(1,2,3)triazolo (4,5-D)pyrimidin-3-yl}-5-(2 hydroxyethoxy)cyclopentane-1,2-diol]
- Appearance After 5 min of shaking [1, 4]: − (translucent solution with precipitation)
- Appearance After 30 min of shaking [1, 4]: − (translucent solution with precipitation)
- Appearance After 60 min of shaking [1, 4]: − (translucent solution with precipitation)
- Appearance After 3 h of shaking [1, 4]: − (translucent solution with precipitation)
- Appearance After overnight shaking [1, 4]: − (translucent solution with precipitation)
- Appearance After 5 min of shaking [1, 5]: − (translucent solution with precipitation)
- Appearance After 30 min of shaking [1, 5]: − (translucent solution with precipitation)
- Appearance After 60 min of shaking [1, 5]: − (translucent solution with precipitation)
- Appearance After 3 h of shaking [1, 5]: − (translucent solution with precipitation)
- Appearance After overnight shaking [1, 5]: − (translucent solution with precipitation)
- Appearance After 5 min of shaking [1, 6]: − (translucent solution with precipitation)
- Appearance After 30 min of shaking [1, 6]: − (translucent solution with precipitation)
- Appearance After 60 min of shaking [1, 6]: − (translucent solution with precipitation)
- Appearance After 3 h of shaking [1, 6]: − (translucent solution with precipitation)
- Appearance After overnight shaking [1, 6]: − (translucent solution with precipitation)
- Appearance After 5 min of shaking [1, 7]: − (translucent solution with precipitation)
- Appearance After 30 min of shaking [1, 7]: − (translucent solution with precipitation)
- Appearance After 60 min of shaking [1, 7]: − (translucent solution with precipitation)
- Appearance After 3 h of shaking [1, 7]: − (translucent solution with precipitation)
- Appearance After overnight shaking [1, 7]: − (translucent solution with precipitation)
- Appearance After 5 min of shaking [1, 8]: − (translucent solution with precipitation)
- Appearance After 30 min of shaking [1, 8]: − (translucent solution with precipitation)
- Appearance After 60 min of shaking [1, 8]: − (translucent solution with precipitation)
- Appearance After 3 h of shaking [1, 8]: − (translucent solution with precipitation)
- Appearance After overnight shaking [1, 8]: − (translucent solution with precipitation)
- Appearance After 5 min of shaking [1, 9]: − (translucent solution with precipitation)
- Appearance After 30 min of shaking [1, 9]: − (translucent solution with precipitation)
- Appearance After 60 min of shaking [1, 9]: − (translucent solution with precipitation)
- Appearance After 3 h of shaking [1, 9]: − (translucent solution with precipitation)
- Appearance After overnight shaking [1, 9]: − (translucent solution with precipitation)
- Appearance After 5 min of shaking [1, 10]: − (translucent solution with precipitation)
- Appearance After 30 min of shaking [1, 10]: − (translucent solution with precipitation)
- Appearance After 60 min of shaking [1, 10]: − (translucent solution with precipitation)
- Appearance After 3 h of shaking [1, 10]: − (translucent solution with precipitation)
- Appearance After overnight shaking [1, 10]: − (translucent solution with precipitation)
- Appearance After 5 min of shaking [1, 11]: − (translucent solution with precipitation)
- Appearance After 30 min of shaking [1, 11]: − (translucent solution with precipitation)
- Appearance After 60 min of shaking [1, 11]: − (translucent solution with precipitation)
- Appearance After 3 h of shaking [1, 11]: − (translucent solution with precipitation)
- Appearance After overnight shaking [1, 11]: − (translucent solution with precipitation)
- Appearance After 5 min of shaking [1, 12]: − (translucent solution with precipitation)
- Appearance After 30 min of shaking [1, 12]: − (translucent solution with precipitation)
- Appearance After 60 min of shaking [1, 12]: − (translucent solution with precipitation)
- Appearance After 3 h of shaking [1, 12]: − (translucent solution with precipitation)
- Appearance After overnight shaking [1, 12]: − (translucent solution with precipitation)
- Appearance After 5 min of shaking [1, 13]: − (translucent solution with precipitation)
- Appearance After 30 min of shaking [1, 13]: +/−
- Appearance After 60 min of shaking [1, 13]: +/−
- Appearance After 3 h of shaking [1, 13]: +/−
- Appearance After overnight shaking [1, 13]: − (translucent solution with precipitation)
- Appearance After 5 min of shaking [1, 14]: − (translucent solution with precipitation)
- Appearance After 30 min of shaking [1, 14]: − (translucent solution with precipitation)
- Appearance After 60 min of shaking [1, 14]: − (translucent solution with precipitation)
- Appearance After 3 h of shaking [1, 14]: − (translucent solution with precipitation)
- Appearance After overnight shaking [1, 14]: − (translucent solution with precipitation)
- Appearance After 5 min of shaking [1, 15]: − (translucent solution with precipitation)
- Appearance After 30 min of shaking [1, 15]: − (translucent solution with precipitation)
- Appearance After 60 min of shaking [1, 15]: − (translucent solution with precipitation)
- Appearance After 3 h of shaking [1, 15]: − (translucent solution with precipitation)
- Appearance After overnight shaking [1, 15]: − (translucent solution with precipitation)
- Appearance After 5 min of shaking [1, 16]: − (translucent solution with precipitation)
- Appearance After 30 min of shaking [1, 16]: +/−
- Appearance After 60 min of shaking [1, 16]: +/−
- Appearance After 3 h of shaking [1, 16]: +/−
- Appearance After overnight shaking [1, 16]: + (clear, appeared completely dissolved)
- Appearance After 5 min of shaking [1, 17]: − (translucent solution with precipitation)
- Appearance After 30 min of shaking [1, 17]: − (translucent solution with precipitation)
- Appearance After 60 min of shaking [1, 17]: − (translucent solution with precipitation)
- Appearance After 3 h of shaking [1, 17]: − (translucent solution with precipitation)
- Appearance After overnight shaking [1, 17]: − (translucent solution with precipitation)
- Appearance After 5 min of shaking [1, 18]: − (translucent solution with precipitation)
- Appearance After 30 min of shaking [1, 18]: − (translucent solution with precipitation)
- Appearance After 60 min of shaking [1, 18]: − (translucent solution with precipitation)
- Appearance After 3 h of shaking [1, 18]: − (translucent solution with precipitation)
- Appearance After overnight shaking [1, 18]: − (translucent solution with precipitation)
- Acetal impurity [2, 19]: 0.05%
- Amine impurity [2, 19]: 0.04%
- Description [2, 19]: clear
- Regiomer [2, 19]: 0.01%
- Sum Impurities >0.05 [2, 19]: 0.05%
- Total impurity [2, 19]: 0.22%
- Triol impurity [2, 19]: 0.02%
- pH [2, 19]: 7.70
- Assay [2, 19]: 100.24
- Acetal impurity [2, 20]: 0.04%
- Amine impurity [2, 20]: 0.04%
- Description [2, 20]: clear
- Regiomer [2, 20]: 0.02%
- Sum Impurities >0.05 [2, 20]: 0.00%
- Total impurity [2, 20]: 0.28%
- Triol impurity [2, 20]: 0.04%
- pH [2, 20]: 7.69
- Assay [2, 20]: 99.89
- Acetal impurity [2, 21]: 0.05%
- Amine impurity [2, 21]: 0.06%
- Description [2, 21]: clear
- Regiomer [2, 21]: 0.04%
- Sum Impurities >0.05 [2, 21]: 0.16%
- Total impurity [2, 21]: 0.33%
- Triol impurity [2, 21]: 0.05%
- pH [2, 21]: 7.66
- Assay [2, 21]: 98.93
- Acetal impurity [2, 22]: 0.05%
- Amine impurity [2, 22]: 0.04%
- Description [2, 22]: clear
- Regiomer [2, 22]: 0.00%
- Sum Impurities >0.05 [2, 22]: 0.18%
- Total impurity [2, 22]: 0.40%
- Triol impurity [2, 22]: 0.04%
- pH [2, 22]: 7.66
- Assay [2, 22]: 98.34
- Acetal impurity [2, 23]: 0.04%
- Amine impurity [2, 23]: 0.04%
- Description [2, 23]: clear
- Regiomer [2, 23]: 0.01%
- Sum Impurities >0.05 [2, 23]: 0.00%
- Total impurity [2, 23]: 0.22%
- Triol impurity [2, 23]: 0.03%
- pH [2, 23]: 7.65
- Assay [2, 23]: 101.71
- Acetal impurity [2, 24]: 0.04%
- Amine impurity [2, 24]: 0.04%
- Description [2, 24]: clear
- Regiomer [2, 24]: 0.02%
- Sum Impurities >0.05 [2, 24]: 0.05%
- Total impurity [2, 24]: 0.28%
- Triol impurity [2, 24]: 0.05%
- pH [2, 24]: 7.63
- Assay [2, 24]: 99.69
- Acetal impurity [2, 25]: 0.05%
- Amine impurity [2, 25]: 0.06%
- Description [2, 25]: clear
- Regiomer [2, 25]: 0.04%
- Sum Impurities >0.05 [2, 25]: 0.16%
- Total impurity [2, 25]: 0.33%
- Triol impurity [2, 25]: 0.05%
- pH [2, 25]: 7.58
- Assay [2, 25]: 98.25
- Acetal impurity [2, 26]: 0.05%
- Amine impurity [2, 26]: 0.04%
- Description [2, 26]: clear
- Regiomer [2, 26]: 0.00%
- Sum Impurities >0.05 [2, 26]: 0.22%
- Total impurity [2, 26]: 0.40%
- Triol impurity [2, 26]: 0.05%
- pH [2, 26]: 7.65
- Assay [2, 26]: 98.34
- solubility ([3]; HPβCD solution 17% w/w, HPβCD 17% w/W): 4 mg/mL (≈ 7.65 mM)
- solubility ([3]; HPβCD solution 22.5% w/w, HPβCD 22.5% w/W): 5 mg/mL (≈ 9.57 mM)
- solubility ([3]; HPβCD solution 30% w/w, HPβCD 30% w/W): 8 mg/mL (≈ 15.3 mM)
- solubility ([3]; HPβCD solution 33% w/w, HPβCD 33% w/W): 9 mg/mL (≈ 17.2 mM)
- solubility ([3]; HPβCD solution 40% w/w, HPβCD 40% w/W): 13 mg/mL (≈ 24.9 mM)
